Measurements reported in ChEMBL document CHEMBL1201862, “PubChem BioAssay data set” (2004).
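Five concentrations, 48 hours, 96-well plates. Here, GI50 denotes the concentration required for 50% inhibition of growth.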 Active and inactive are the calls of the source. Cut-off read from the data, not from the text of the source: active = GI50 up to about 1.1 µM and inactive = higher.

How the values were obtained:
Test in all cases: growth of human tumour cells (NCI), 48 h
HCC 2998 = system: HCC 2998
Malme-3M = system: Malme-3M
CCRF-CEM = system: CCRF-CEM
HCT-116 = system: HCT-116
K562 = system: K562
HOP-92 = system: HOP-92
LOX IMVI = system: LOX IMVI
SR = system: SR
IGROV-1 = system: IGROV-1
DLD-1 = system: DLD-1
OVCAR-5 = system: OVCAR-5
SF-295 = system: SF-295
SNB-19 = system: SNB-19
Hs-578T = system: Hs-578T
BT-549 = system: BT-549
MCF7 = system: MCF7
CAKI-1 = system: CAKI-1
MDA-MB-435 = system: MDA-MB-435
MDA-N = system: MDA-N
NCI-H226 = system: NCI-H226

SMILES	GI50 (HCC 2998)	GI50 (Malme-3M)	GI50 (CCRF-CEM)	GI50 (HCT-116)	GI50 (K562)	GI50 (HOP-92)	GI50 (LOX IMVI)	GI50 (SR)	GI50 (IGROV-1)	GI50 (DLD-1)	GI50 (OVCAR-5)	GI50 (SF-295)	GI50 (SNB-19)	GI50 (Hs-578T)	GI50 (BT-549)	GI50 (MCF7)	GI50 (CAKI-1)	GI50 (MDA-MB-435)	GI50 (MDA-N)	GI50 (NCI-H226)
CN(C)CCSc1cccc(-c2cc(-c3cccc(SCCN(C)C)c3)nc(SCCN(C)C)n2)c1	2.29 µM (inactive)	1.87 µM (inactive)	1.69 µM (inactive)	1.17 µM (inactive)	1.49 µM (inactive)	0.551 µM (active)	1.64 µM (inactive)	1.82 µM (inactive)	3.37 µM (inactive)	12.9 µM (inactive)	6.79 µM (inactive)	2 µM (inactive)	–	–	–	–	–	–	–	–
C=C(C)c1nc(Oc2ccccc2)nc(Oc2ccccc2)n1	3.99 µM (inactive)	13.9 µM (inactive)	2.54 µM (inactive)	3.53 µM (inactive)	2.23 µM (inactive)	4.93 µM (inactive)	2.08 µM (inactive)	2.86 µM (inactive)	9.38 µM (inactive)	2.72 µM (inactive)	16.6 µM (inactive)	14.9 µM (inactive)	9.33 µM (inactive)	4.49 µM (inactive)	3.32 µM (inactive)	3.08 µM (inactive)	2.06 µM (inactive)	10.3 µM (inactive)	3.5 µM (inactive)	19.9 µM (inactive)
Cc1cc(N(CCC#N)S(=O)(=O)c2ccccc2)ccc1/C=N/c1ccc(C(=O)O)cc1	16.8 µM (inactive)	4.61 µM (inactive)	6.4 µM (inactive)	7.87 µM (inactive)	7.96 µM (inactive)	> 100 µM (inactive)	13.2 µM (inactive)	–	30 µM (inactive)	1.99 µM (inactive)	20.3 µM (inactive)	29.1 µM (inactive)	29.6 µM (inactive)	56 µM (inactive)	> 100 µM (inactive)	> 100 µM (inactive)	2.23 µM (inactive)	> 100 µM (inactive)	> 100 µM (inactive)	21.8 µM (inactive)
CC(=O)N1[C@H](C(=O)O)CS[C@H]1c1ccncc1	> 100 µM (inactive)	> 100 µM (inactive)	> 100 µM (inactive)	> 100 µM (inactive)	> 100 µM (inactive)	> 100 µM (inactive)	> 100 µM (inactive)	> 100 µM (inactive)	> 100 µM (inactive)	> 100 µM (inactive)	> 100 µM (inactive)	> 100 µM (inactive)	> 100 µM (inactive)	–	–	–	> 100 µM (inactive)	–	–	> 100 µM (inactive)
CCCCCC(C[N+]1(C)CCOCC1)C(=O)/C=C/c1ccccc1 (configuration not stated)	18.2 µM (inactive)	16.9 µM (inactive)	2.71 µM (inactive)	3.41 µM (inactive)	3.34 µM (inactive)	18.7 µM (inactive)	1.76 µM (inactive)	2.91 µM (inactive)	19.4 µM (inactive)	6.25 µM (inactive)	17.4 µM (inactive)	7.74 µM (inactive)	12 µM (inactive)	–	–	–	16.9 µM (inactive)	–	–	10.8 µM (inactive)
COc1ccc(OC(=O)CC2Cc3cc(OC)c(OC)c(OC)c3-c3ccc(SC)c(=O)cc32)cc1 (configuration not stated)	0.0568 µM (active)	0.383 µM (active)	0.184 µM (active)	0.156 µM (active)	0.0805 µM (active)	0.467 µM (active)	0.172 µM (active)	0.463 µM (active)	1.85 µM (inactive)	0.344 µM (active)	–	0.0794 µM (active)	0.12 µM (active)	–	–	–	–	–	–	0.216 µM (active)
CN(C)/N=C(/c1nc2ccc([N+](=O)[O-])cc2nc1O)C(O)c1ccco1 (configuration not stated)	53 µM (inactive)	> 100 µM (inactive)	> 100 µM (inactive)	> 100 µM (inactive)	> 100 µM (inactive)	> 100 µM (inactive)	50 µM (inactive)	> 100 µM (inactive)	90.4 µM (inactive)	84.1 µM (inactive)	> 100 µM (inactive)	> 100 µM (inactive)	> 100 µM (inactive)	–	–	–	48.1 µM (inactive)	–	–	> 100 µM (inactive)
CCOc1ccccc1NC(=O)C(C#N)C1=C(Cl)C(=O)c2ccccc2C1=O (configuration not stated)	1.75 µM (inactive)	1.57 µM (inactive)	0.867 µM (active)	1.95 µM (inactive)	1.58 µM (inactive)	2.05 µM (inactive)	0.74 µM (active)	1.33 µM (inactive)	2.13 µM (inactive)	1.85 µM (inactive)	2.14 µM (inactive)	1.72 µM (inactive)	2.13 µM (inactive)	–	–	–	2.76 µM (inactive)	–	–	2.13 µM (inactive)
CN(C)C=[N+]=[N-]	> 100 µM (inactive)	> 100 µM (inactive)	–	> 100 µM (inactive)	> 100 µM (inactive)	> 100 µM (inactive)	–	> 100 µM (inactive)	> 100 µM (inactive)	> 100 µM (inactive)	> 100 µM (inactive)	> 100 µM (inactive)	> 100 µM (inactive)	–	–	–	43 µM (inactive)	–	–	> 100 µM (inactive)
